In patent US20110152092A1, “Herbicidal compositions comprising flufenacet” (Bayer CropScience AG, priority 2009, published 2011):

Key:
ALOMY = assay: Greenhouse trial, PE application on sensitive and resistant biotypes (test method 8); format: in vivo, Alopecurus myosuroides; conditions: g of AS/ha: (A) 90, (B) 1200, (C) 90, mixture 90 + 1200 + 90, iodosulfuron 10
Procedure: (§1) In the standard design of the test, seeds of various broad-leaved weed and weed grass biotypes (origins) were sown in a 8-13 cm diameter pot filled with natural soil of a standard field soil (loamy silt; non-sterile) and covered with a covering soil layer of about 1 cm. The pots were then cultivated in a greenhouse (12-16 h of light, temperature day 20-22° C., night 15-18° C.) until the time of application. The pots were treated on a laboratory track sprayer with spray liquors comprising the compositions according to the invention, mixtures of the prior art or components used individually. Application of the active compounds or active compound combinations formulated as WG, WP, EC or otherwise was carried out at the appropriate growth stages of the plants. The application rate for the spray application was 100-600 l of water/ha. After the treatment, the plants were returned to the greenhouses.
(§2) About 3 weeks after the application, the soil action or/and foliar action was assessed visually according to a scale of 0-100% in comparison to an untreated comparative group: 0%=no noticeable effect compared to the untreated comparative group; 100%=full effect compared to the untreated comparative group.
(§3) (notes: the term “seeds” also includes vegetative propagation forms such as, for example, rhizome pieces; abbreviations used: h light=hours of illumination, g of AS/ha=gram of active substance per hectare, l/ha=liter per hectare, S=sensitive, R=resistant) • 1. Pre-emergence action against weeds: seeds of various broad-leaved weed and weed grass biotypes (origins) were sown in a 8-13 cm diameter pot filled with natural soil of a standard field soil (loamy silt; non-sterile) and covered with a covering soil layer of about 1 cm. The pots were then cultivated in a greenhouse (12-16 h of light, temperature day 20-22° C., night 15-18° C.) until the time of application. The pots were treated at the BBCH stage 00-10 of the seeds/plants on a laboratory track sprayer with spray liquors comprising the compositions according to the invention, mixtures or components used individually, as WG, WP, EC or other formulations. The application rate for the spray application was 100-600 l of water/ha. After the treatment, the plants were returned to the greenhouses and, when required, treated with fertilizer and watered. • 2. Post-emergence action against weeds: seeds of various broad-leaved weed and weed grass biotypes (origins) were sown in a 8-13 cm diameter pot filled with natural soil of a standard field soil (loamy silt; non-sterile) and covered with a covering soil layer of about 1 cm. The pots were then cultivated in a greenhouse (12-16 h of light, temperature day 20-22° C., night 15-18° C.) until the time of application. The pots were treated at various BBCH stages between 11-25 of the seeds/plants, i.e. generally between two to three weeks after the start of the cultivation, on a laboratory track sprayer with spray liquors comprising the compositions according to the invention, mixtures or components used individually, as WG, WP, EC or other formulations. The application rate for the spray application was 100-600 l of water/ha. After the treatment, the plants were returned to the greenhouses and, when required, treated with fertilizer and watered. • 3. Selective pre-emergence action: seeds of various crop species (origins) were sown in a 8-13 cm diameter pot filled with natural soil of a standard field soil (loamy silt; non-sterile) and covered with a covering soil layer of about 1 cm. The pots were then cultivated in a greenhouse (12-16 h of light, temperature day 20-22° C., night 15-18° C.) until the time of application. The pots were treated at the BBCH stage 00-10 of the seeds/plants on a laboratory track sprayer with spray liquors comprising the compositions according to the invention, mixtures or components used individually, as WG, WP, EC or other formulations. The application rate for the spray application was 100-600 l of water/ha. […]

MATCH [1] = assay: Greenhouse trial, PE application with different irrigation variations (test method 6); format: in vivo, Matricaria chamomilla; conditions: irrigation from above, g of AS/ha: (A) 120, (B) 1200, (C) 90, mixture 120 + 1200 + 90
Procedure: as §1, §2
(§4) (notes: the term “seeds” also includes vegetative propagation forms such as, for example, rhizome pieces; abbreviations used: h light=hours of illumination, g of AS/ha=gram of active substance per hectare, l/ha=liter per hectare, S=sensitive, R=resistant) • 1. Pre-emergence action against weeds: seeds of various broad-leaved weed and weed grass biotypes (origins) were sown in a 8-13 cm diameter pot filled with natural soil of a standard field soil (loamy silt; non-sterile) and covered with a covering soil layer of about 1 cm. The pots were then cultivated in a greenhouse (12-16 h of light, temperature day 20-22° C., night 15-18° C.) until the time of application. […]

MATCH [2] = assay: Greenhouse trial, activity with different soil types; format: in vivo, Matricaria chamomilla; conditions: g of AS/ha: (A) 120, (B) 1200, (C) 90, mixture 120 + 1200 + 90
Procedure: as §1, §2
(notes: the term “seeds” also includes vegetative propagation forms such as, for example, rhizome pieces; abbreviations used: h light=hours of illumination, g of AS/ha=gram of active substance per hectare, l/ha=liter per hectare, S=sensitive, R=resistant) • 1. Pre-emergence action against weeds: seeds of various broad-leaved weed and weed grass biotypes (origins) were sown in a 8-13 cm diameter pot filled with natural soil of a standard field soil (loamy silt; non-sterile) and covered with a covering soil layer of about 1 cm. The pots were then cultivated in a greenhouse (12-16 h of light, temperature day 20-22° C., night 15-18° C.) until the time of application. The pots were treated at the BBCH stage 00-10 of the seeds/plants on a laboratory track sprayer with spray liquors comprising the compositions according to the invention, mixtures or components used individually, as WG, WP, EC or other formulations. The application rate for the spray application was 100-600 l of water/ha. After the treatment, the plants were returned to the greenhouses and, when required, treated with fertilizer and watered. • 2. Post-emergence action against weeds: seeds of various broad-leaved weed and weed grass biotypes (origins) were sown in a 8-13 cm diameter pot filled with natural soil of a standard field soil (loamy silt; non-sterile) and covered with a covering soil layer of about 1 cm. The pots were then cultivated in a greenhouse (12-16 h of light, temperature day 20-22° C., night 15-18° C.) until the time of application. The pots were treated at various BBCH stages between 11-25 of the seeds/plants, i.e. generally between two to three weeks after the start of the cultivation, on a laboratory track sprayer with spray liquors comprising the compositions according to the invention, mixtures or components used individually, as WG, WP, EC or other formulations. The application rate for the spray application was 100-600 l of water/ha. After the treatment, the plants were returned to the greenhouses and, when required, treated with fertilizer and watered. • 3. […]

STEME = assay: as above; format: in vivo, Stellaria media; conditions: g of AS/ha: (A) 120, (B) 1200, (C) 90, mixture 120 + 1200 + 90
Procedure: as §1, §2, §3

APESV = assay: Greenhouse trial, PE application at different sowing depths (test method 9); format: in vivo, Apera Spica-venti; conditions: sowing depth 5 mm, g of AS/ha: (A) 120, (B) 1200, (C) 90, mixture 90 + 1200 + 90
Procedure: as §1, §2, §4

LOLPE = assay: Greenhouse trial, PO application, post-emergence action against weeds (test method 2); format: in vivo, Lolium perenne; conditions: g of AS/ha: (A) 120, (B) 1200, (C) 120, mixture 120 + 1200 + 120
Procedure: as §1
as §2, with “group. […]” for “group.”

## CC(C)N(C(=O)COc1nnc(C(F)(F)F)s1)c1ccc(F)cc1 [(A) flufenacet, N-(4-fluorophenyl)-N-(1-methylethyl)-2-[[5-(trifluoromethyl)-1,3,4-thiadiazol-2-yl]oxy]acetamide]
ALOMY; resistant biotype
  activity ALOMY resistant (visual, scale 0-100%): 68%
ALOMY; sensitive biotype
  activity ALOMY sensitive (visual, scale 0-100%): 80%
MATCH [1]
  activity MATCH (visual, scale 0-100%): 97%
MATCH [2]; IU/EC73 soil versus IU soil
  Difference of the soil types, MATCH: −28%
MATCH [2]; IU/EC73 soil
  activity MATCH IU/EC73 soil (visual, scale 0-100%): 0%
STEME; IU soil
  activity STEME IU soil (visual, scale 0-100%): 89%
STEME; IU/EC73 soil versus IU soil
  Difference of the soil types, STEME: −89%
APESV
  activity APESV 5 mm (visual, scale 0-100%): 67%
LOLPE
  activity LOLPE (visual, scale 0-100%): 65%
